From patent US10617690B2 (priority 2015, dated 2020) come the findings set out here.

The target in series [1] is JAK1 protein kinase (Homo sapiens, UniProt P23458). The series is described as follows: biochemical. As to conditions: 38 uM ATP, 90 min. As for the experimental part:
In Vitro Activity Test of Jak1, Jak 2 and Jak 3 Kinase
Recombinant humanized JAK1, JAK2 and JAK3 […] were all purchased from Life technology. LANCE Ultra ULight™-JAK-1(Tyr1023) peptide and LANCE Eu-W1024 Anti-phosphotyrosine (PT66) were both purchased from PerkinElmer. Envision (PerkinElmer) was used to read a plate.
Three dilution of a test compound was prepared, and 11 final concentrations were obtained: 10 uM to 0.17 nM. Each concentration had two repeat wells. The content of DMSO in a detection reaction was 1%.
2 nM JAK1 protein kinase, 50 nM LANCE Ultra ULight™-JAK-1(Tyr1023) peptide, 38 uM ATP, 50 mM HEPES (pH7.5), 10 mM MgCl2, 1 mM EGTA, 2 mM DTT, and 0.01% BRIJ-35. Detection plate was White Proxiplate 384-Plus plate (PerkinElmer), the reaction was conducted for 90 min at room temperature, and reaction system was 10 ul.
10 ul detection reagent was added into the reaction plate, wherein the final concentration of LANCE Eu-W1024 Anti-phosphotyrosine (PT66) was 2 nM, the final concentration of EDTA was 10 mM, incubation was conducted for 60 min at room temperature, and the plate was read by the Envision.
The reading was converted into a suppression ratio as follow equation: (%)=([…])/(Max−Min)*100%. IC50 data was detected by 4 parametric curve fitting (Model 205 in XLFIT5, iDBS), see Table 1.

A short description of series [2]: Pharmacokinetics (PK) test in rats. As to conditions: for AUC(0-inf) / AUC(0-t) / half-life / Vd / Cmax / Tmax / bioavailability: rat, plasma; for Vd: intravenous, read-out: Vdss; for Cmax / Tmax / bioavailability: oral. It is filed as in vivo.
Series [3] is described as follows: Pharmacokinetics (PK) test in mice. The series is classed as in vivo, male DBA/1 mice. As to conditions: for AUC(0-inf) / AUC(0-t) / half-life / Vd / Cmax / Tmax / bioavailability: male, DBA/1, mouse, plasma; for half-life: caudal vein injection and gavage; for Vd: read-out: Vdss; for Cmax / Tmax / bioavailability: oral.
Series [4] deals with arthritis model induced by collagen. As to conditions: oral, two consecutive weeks.
Series [5] has as its target JAK2 protein kinase (Homo sapiens, UniProt O60674). The series is described as follows: biochemical. As to conditions: 12 uM ATP, 60 min.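 Further: recombinant human JAK2 with ULight-labelled JAK-1(Tyr1023) peptide substrate, phosphorylation detected by TR-FRET using Eu-labelled anti-phosphotyrosine antibody, 1% DMSO.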
Description: (§1) Recombinant humanized JAK1, JAK2 and JAK3 protease were all purchased from Life technology. LANCE Ultra ULight™-JAK-1(Tyr1023) peptide and LANCE Eu-W1024 Anti-phosphotyrosine (PT66) were both purchased from PerkinElmer. Envision (PerkinElmer) was used to read a plate.
(§2) The reading was converted into a suppression ratio as follow equation: (%)=(Min−Ratio)/(Max−Min)*100%.
For series [6], the target named is T1, JAK3 (Homo sapiens, UniProt P52333).
T1 construct: purchased Life technology
T1 sequence (P52333 1-1124): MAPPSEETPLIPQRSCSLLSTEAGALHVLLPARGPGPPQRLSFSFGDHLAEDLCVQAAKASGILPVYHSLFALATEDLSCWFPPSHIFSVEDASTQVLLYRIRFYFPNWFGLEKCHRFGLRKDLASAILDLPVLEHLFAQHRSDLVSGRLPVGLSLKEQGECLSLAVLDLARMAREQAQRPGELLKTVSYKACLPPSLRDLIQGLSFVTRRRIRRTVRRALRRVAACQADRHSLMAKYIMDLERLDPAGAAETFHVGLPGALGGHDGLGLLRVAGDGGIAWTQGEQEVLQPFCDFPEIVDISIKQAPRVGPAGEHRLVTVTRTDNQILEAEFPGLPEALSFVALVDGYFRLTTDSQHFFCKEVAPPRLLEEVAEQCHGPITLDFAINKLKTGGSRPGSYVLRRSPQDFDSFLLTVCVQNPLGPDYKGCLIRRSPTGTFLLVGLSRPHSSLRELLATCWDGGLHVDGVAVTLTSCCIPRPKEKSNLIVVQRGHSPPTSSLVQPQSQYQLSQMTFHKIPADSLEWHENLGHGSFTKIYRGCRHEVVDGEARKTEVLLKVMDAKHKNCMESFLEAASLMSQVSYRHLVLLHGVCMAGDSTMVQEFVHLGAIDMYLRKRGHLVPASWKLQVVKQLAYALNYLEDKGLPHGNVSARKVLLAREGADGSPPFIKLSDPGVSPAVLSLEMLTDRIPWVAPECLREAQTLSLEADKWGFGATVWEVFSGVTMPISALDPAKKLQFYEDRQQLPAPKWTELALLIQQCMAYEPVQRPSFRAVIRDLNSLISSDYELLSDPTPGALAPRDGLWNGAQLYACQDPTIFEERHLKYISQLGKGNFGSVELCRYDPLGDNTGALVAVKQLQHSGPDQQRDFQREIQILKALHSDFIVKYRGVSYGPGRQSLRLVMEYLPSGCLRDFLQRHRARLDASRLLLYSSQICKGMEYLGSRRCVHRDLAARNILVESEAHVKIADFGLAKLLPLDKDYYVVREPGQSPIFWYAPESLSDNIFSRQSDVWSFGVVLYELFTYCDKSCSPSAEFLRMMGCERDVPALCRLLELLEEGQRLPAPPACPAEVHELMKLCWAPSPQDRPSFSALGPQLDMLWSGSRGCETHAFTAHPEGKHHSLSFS
The series is described as follows: In vitro activity test of JAK3 kinase (LANCE Ultra TR-FRET).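 Further: recombinant human JAK3 phosphorylating ULight-JAK-1(Tyr1023) peptide at 4 µM ATP, with 1% DMSO, detected by Eu-anti-phosphotyrosine TR-FRET on Envision and converted to percent inhibition.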 It is filed as biochemical. A general note: Time-resolved FRET reads energy transfer from a long-lived donor to a nearby acceptor.
Protocol: as §1
0.05 nM protein kinase, 50 nM LANCE Ultra ULight™-JAK-1(Tyr1023) peptide, 4 uM ATP, 50 mM HEPES (pH7.5), 10 mM MgCl2, 1 mM EGTA, 2 mM DTT, and 0.01% BRIJ-35.
as §2

In series [7] the test system is arthritis model induced by adjuvant. The series is described as follows: Pharmacodynamic test of an arthritis model induced by adjuvant on rats. It is filed as in vivo, female Lewis rat. As to conditions: oral; for AUC (%): two consecutive weeks; for arthritis inhibitory activity and dose-effect relationship: 1, 3 and 10 mpk.

Where two headings read alike, the source gives them in different places.

Chain of JAK1 protein kinase (P23458 whole entry): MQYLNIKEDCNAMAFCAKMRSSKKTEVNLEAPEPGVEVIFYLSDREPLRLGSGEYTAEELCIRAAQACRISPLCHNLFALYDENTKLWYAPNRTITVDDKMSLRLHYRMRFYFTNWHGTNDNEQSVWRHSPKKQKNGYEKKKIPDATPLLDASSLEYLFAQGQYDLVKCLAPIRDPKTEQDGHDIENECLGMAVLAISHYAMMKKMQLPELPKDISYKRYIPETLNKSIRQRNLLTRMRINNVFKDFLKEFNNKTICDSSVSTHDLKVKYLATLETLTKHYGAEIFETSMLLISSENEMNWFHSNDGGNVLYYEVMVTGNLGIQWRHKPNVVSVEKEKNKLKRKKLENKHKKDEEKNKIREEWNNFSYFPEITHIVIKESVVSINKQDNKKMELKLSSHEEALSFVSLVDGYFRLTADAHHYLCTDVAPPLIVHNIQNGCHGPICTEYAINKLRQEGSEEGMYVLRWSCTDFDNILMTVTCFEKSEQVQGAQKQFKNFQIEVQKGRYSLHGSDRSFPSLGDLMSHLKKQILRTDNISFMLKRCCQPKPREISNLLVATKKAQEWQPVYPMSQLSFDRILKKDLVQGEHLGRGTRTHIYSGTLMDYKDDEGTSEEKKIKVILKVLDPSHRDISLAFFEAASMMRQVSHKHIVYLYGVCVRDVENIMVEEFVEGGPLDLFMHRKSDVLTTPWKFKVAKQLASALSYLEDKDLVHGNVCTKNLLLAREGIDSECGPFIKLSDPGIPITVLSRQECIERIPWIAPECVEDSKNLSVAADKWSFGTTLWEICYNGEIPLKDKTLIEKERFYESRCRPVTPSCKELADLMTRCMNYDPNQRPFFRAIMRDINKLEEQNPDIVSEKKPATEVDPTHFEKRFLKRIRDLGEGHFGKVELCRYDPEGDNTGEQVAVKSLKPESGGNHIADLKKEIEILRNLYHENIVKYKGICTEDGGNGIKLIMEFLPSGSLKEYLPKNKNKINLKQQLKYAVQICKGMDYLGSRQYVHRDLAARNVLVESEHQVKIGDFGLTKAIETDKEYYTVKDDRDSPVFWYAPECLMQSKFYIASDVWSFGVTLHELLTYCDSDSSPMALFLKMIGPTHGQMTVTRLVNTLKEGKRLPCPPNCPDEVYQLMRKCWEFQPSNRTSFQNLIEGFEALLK
Chain of JAK2 protein kinase (O60674 whole entry): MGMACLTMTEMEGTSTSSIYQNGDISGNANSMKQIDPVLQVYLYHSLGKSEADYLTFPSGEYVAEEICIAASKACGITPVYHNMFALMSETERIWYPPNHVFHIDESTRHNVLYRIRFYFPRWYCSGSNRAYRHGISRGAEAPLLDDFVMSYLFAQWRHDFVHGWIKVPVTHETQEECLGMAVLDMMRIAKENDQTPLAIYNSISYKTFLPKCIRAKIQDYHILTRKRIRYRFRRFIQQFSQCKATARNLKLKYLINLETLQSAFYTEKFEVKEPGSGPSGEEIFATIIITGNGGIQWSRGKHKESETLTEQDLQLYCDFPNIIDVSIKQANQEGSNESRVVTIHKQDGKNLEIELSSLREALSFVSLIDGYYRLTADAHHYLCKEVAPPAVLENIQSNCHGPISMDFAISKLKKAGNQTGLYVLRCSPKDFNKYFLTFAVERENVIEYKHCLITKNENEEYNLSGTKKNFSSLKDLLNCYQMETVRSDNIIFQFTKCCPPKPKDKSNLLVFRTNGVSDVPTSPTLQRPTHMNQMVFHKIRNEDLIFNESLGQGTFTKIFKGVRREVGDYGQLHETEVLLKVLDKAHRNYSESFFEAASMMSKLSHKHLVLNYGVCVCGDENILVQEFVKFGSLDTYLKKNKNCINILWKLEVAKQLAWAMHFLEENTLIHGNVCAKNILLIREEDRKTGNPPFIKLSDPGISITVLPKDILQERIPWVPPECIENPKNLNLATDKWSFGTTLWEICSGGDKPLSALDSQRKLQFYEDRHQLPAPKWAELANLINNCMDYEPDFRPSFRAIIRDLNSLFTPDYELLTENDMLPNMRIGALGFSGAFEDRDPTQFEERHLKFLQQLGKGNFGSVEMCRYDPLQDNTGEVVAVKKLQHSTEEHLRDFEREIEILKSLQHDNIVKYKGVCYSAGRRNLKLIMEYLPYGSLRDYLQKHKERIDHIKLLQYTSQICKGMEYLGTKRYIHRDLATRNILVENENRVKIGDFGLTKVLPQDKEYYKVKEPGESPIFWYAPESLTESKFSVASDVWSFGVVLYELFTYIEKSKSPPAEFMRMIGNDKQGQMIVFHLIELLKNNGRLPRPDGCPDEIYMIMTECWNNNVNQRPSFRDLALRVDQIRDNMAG

Broadly, the IC50 is the concentration at which inhibition is half-maximal. A higher IC50 goes with weaker potency. As a reminder, the AUC(0-inf) is total exposure, with the tail of the curve extrapolated. A high value points to high exposure. For orientation: AUC(0-t) means exposure summed from dosing to a finite time, without extrapolation to infinity. Read a high AUC(0-t) as high exposure. One may read the half-life as the time needed for the level to fall by half in the phase considered. What is called Cmax is the highest concentration seen after dosing. What is called Tmax is the time from dosing to the highest level. The term bioavailability denotes the share of a dose that reaches the circulation, judged against a reference dose that is usually intravenous. Lower therefore signals poor availability. In turn, `CN(c1ncnc2[nH]ccc12)N1CCC[C@@H](C(=O)NCC(F)(F)F)C1` (single isomer, unassigned) [WX05, (R or S)-1-[methyl(7H pyrrolo[2,3-d]pyrimidin-4-yl)amino]-N-(2,2,2-trifluoroethyl)piperidyl-3-formamide] displayed an IC50 in series [1] of less than 10 nM. In series [2], the C1 worked out at 13.1 mL/min/kg; the “oral bioavailability and exposed quantity” value was “excellent good oral bioavailability and higher exposed quantity”; the area under the curve AUC(0-inf) came out at 11.5 µM·h; the exposure AUC(0-t) amounted to 11.2 µM·h. Also, in series [2], the half-life is 91.8 min, the Vd is 1.49 L/kg, the Cmax is 3690 nM and the Tmax worked out at 60 min. Besides, the bioavailability in series [2] was 64.4%. Moreover, in series [3], the C1 is listed as 57.2 mL/min/kg; the “oral bioavailability and exposed quantity” value is “excellent good oral bioavailability and higher exposed quantity”; the area under the curve AUC(0-inf) amounted to 0.667 µM·h; the AUC(0-t) is 0.664 µM·h. Moreover, in series [3], the Cmax is 1230 nM, the Tmax is 15 min and the bioavailability is 27%. In series [3] (intravenous), the half-life is 30.9 min and the Vd amounted to 0.959 L/kg. The “AUC (%)” value in series [4] (15 mg/kg) is 31%. Further, the half-maximal inhibitory concentration (IC50) in series [5] lay in the range of 10 to 100 nM. In series [6], this compound displayed a half-inhibitory concentration (IC50) of less than 10 nM.

`CN(c1ncnc2[nH]ccc12)N1CCCC(C(=O)NCC(F)(F)F)C1` (single isomer, unassigned) [WX06, (S or R)-1-[methyl(7H pyrrolo[2,3-d]pyrimidin-4-yl)amino]-N-(2,2,2-trifluoroethyl)piperidyl-3-formamide]: the IC50 in series [1] is 100 to 1000 nM; in series [5], greater than 1000 nM; in series [6] it was greater than 1000 nM. In addition, in series [4] (15 mg/kg), the “AUC (%)” value was 30.3%.

`CN(c1ncnc2[nH]ccc12)N1CCC[C@@H](C(=O)NCC#N)C1` (single isomer, unassigned) [WX08, (R or S)—N-(cyanomethyl-1-[methyl(7H-pyrrolo[2,3-d]pyrimidin-4-yl)amino]piperidyl)-3-formamide]: the IC50 in series [1] is less than 10 nM. Also, in series [2], the C1 is reported as 27.1 mL/min/kg; the “oral bioavailability and exposed quantity” value was “excellent good oral bioavailability and higher exposed quantity”; the AUC(0-inf) came to 6.5 µM·h; the exposure AUC(0-t) was 6.36 µM·h. Besides, in series [2], the half-life was 56.9 min, the Vd was found to be 1.51 L/kg, the concentration peaked (Cmax) at 2460 nM and the Tmax is 30 min. The compound further gave a bioavailability in series [2] of 61%. Further, in series [3], the C1 came to 26.7 mL/min/kg; the “oral bioavailability and exposed quantity” value was “excellent good oral bioavailability and higher exposed quantity”; the AUC(0-inf) was determined as 3.03 µM·h; the AUC(0-t) was found to be 3 µM·h. For the same compound, in series [3], the concentration peaked (Cmax) at 2440 nM, the Tmax was determined as 15 min and the bioavailability amounted to 50.7%. Also, the Vd in series [3] (intravenous) amounted to 0.619 L/kg. Moreover, the half-life in series [3] (po) is 37.4 min. Also, in series [7] (1 mg/kg), the “AUC (%)” value worked out at 13.6%. Further, the “AUC (%)” value in series [7] (3 mg/kg) was determined as 33.4%. Also, in series [7] (10 mg/kg), the “AUC (%)” value amounted to 49.2%. Also, the “arthritis inhibitory activity and dose-effect relationship” value in series [7] was “good dose-effect relationship and generated arthritis inhibitory activity that was more effective than Filgotinib”. In series [5], this compound had an IC50 of less than 10 nM. Besides, the 50% inhibitory concentration (IC50) in series [6] is less than 10 nM.

Turning to `O=C(Nc1nc2cccc(-c3ccc(CN4CCS(=O)(=O)CC4)cc3)n2n1)C1CC1` [Filgotinib, reference compound], the “AUC (%)” value in series [4] (15 mg/kg) is on record as 39.9%; in series [7] (3 mg/kg), 7.9%.

Take `C[C@@H]1CCN(C(=O)CC#N)C[C@@H]1N(C)c1ncnc2[nH]ccc12` [Tofacitinib, reference compound]: the “AUC (%)” value is 34% in series [4] (15 mg/kg), 19.8% in series [7] (1 mg/kg), 41.6% in series [7] (3 mg/kg) and 49.2% in series [7] (10 mg/kg).

In the case of `CN(c1ncnc2[nH]ccc12)N1CCCC(C(=O)NCC(F)(F)F)C1` (stereo not shown) [WX04], the IC50 in series [1] is less than 10 nM; in series [5], 10 to 100 nM; in series [6] it was 10 to 100 nM. Besides, the “AUC (%)” value is 29% in series [4] (15 mg/kg) and 27% in series [4] (30 mg/kg).

Turning to `CN(c1ncnc2[nH]ccc12)N1CCCC(C(=O)NCC#N)C1` (stereo not shown) [WX07, N-(cyanomethyl)-1-[methyl(7H-pyrrolo[2,3-d]pyrimidin-4-yl)amino]piperidyl-3-formamide], the IC50 in series [1] was less than 10 nM. In addition, in series [2], the C1 is recorded as 31.8 mL/min/kg; the “oral bioavailability and exposed quantity” value is “excellent good oral bioavailability and higher exposed quantity”; the AUC(0-inf) amounted to 5.75 µM·h; the AUC(0-t) was 5.68 µM·h. In series [2], the half-life is 70.8 min, the Vd was 1.76 L/kg, the highest concentration (Cmax) was 3250 nM and the Tmax was 20 min. In series [2], this compound displayed a bioavailability of 68.6%. Also, in series [3], the C1 was found to be 21.3 mL/min/kg; the “oral bioavailability and exposed quantity” value was “excellent good oral bioavailability and higher exposed quantity”; the total exposure AUC(0-inf) was determined as 2.48 µM·h; the AUC(0-t) was found to be 2.33 µM·h. In series [3], the Cmax turned out to be 2290 nM, the Tmax was determined as 30 min and the bioavailability was determined as 32.9%. In series [3] (intravenous), the Vd was 0.846 L/kg. Moreover, in series [3] (po), the half-life was 81 min. Moreover, the “AUC (%)” value in series [4] (15 mg/kg) worked out at 52.2%. Moreover, in series [7] (1 mg/kg), the “AUC (%)” value is 1.5%. Besides, the “AUC (%)” value in series [7] (3 mg/kg) came to 20.4%. In addition, the “AUC (%)” value in series [7] (10 mg/kg) was determined as 44.7%. In addition, the “arthritis inhibitory activity and dose-effect relationship” value in series [7] is “good dose-effect relationship and arthritis inhibitory activity equivalent to Tofacitinib”. The compound further returned an IC50 in series [5] of 10 to 100 nM. The compound further showed an IC50 in series [6] of less than 10 nM.

Regarding `CN(c1ncnc2[nH]ccc12)N1CCCC(C(=O)NC2CC(F)(F)C2)C1` (stereo not shown) [WX56], the half-maximal inhibitory concentration (IC50) is less than 10 nM in series [1], greater than 1000 nM in series [5] and 10 to 100 nM in series [6].

With `CN(c1ncnc2[nH]ccc12)N1CCCC(c2ncc(C(F)(F)F)[nH]2)C1` (stereo not shown) [WX57, N-methyl-N-[3-[5-trifluoromethyl-1H-imidazol-2-yl]-1-piperidinyl]-7H-pyrrolo[2,3-d]pyrimidine-4-amine], the IC50 in series [1], in series [5] and in series [6] was 10 to 100 nM throughout.

On to `O=C(NCC(F)(F)F)C1CCCN(N(c2ncnc3[nH]ccc23)C2CC2)C1` (stereo not shown) [WX58, 1-[cyclopropyl(7H-pyrrolo[2,3-d]pyrimidin-4-yl)amino]-N-(2,2,2-trifluoroethyl)piperidyl-3-formamide], for which the IC50 in series [1] is 10 to 100 nM; in series [5] it was 100 to 1000 nM; in series [6], 100 to 1000 nM.

Turning to `O=C(NCC(F)(F)F)C1CCC2(CC1)CCN(Nc1ncnc3[nH]ccc13)CC2` [WX59], the results for the half-inhibitory concentration (IC50) in series [1], in series [5] and in series [6] were 100 to 1000 nM, greater than 1000 nM and greater than 1000 nM, respectively.
